Laboratory results as given in US12195427B2, “MASP-2 inhibitors and methods of use” (priority 2018, dated 2025).

Assays:
[1] = target: MASP-2 (CCP1-CCP2-SP) (Homo sapiens (Human), UniProt O00187); assay: Enzymatic Assay for MASP-2 (fluorogenic substrate); assay type: biochemical
[2] = target: human α-thrombin (Homo sapiens (Human), UniProt P00734); assay: Enzymatic Assay for Thrombin (Boc-VPR-AMC); assay type: biochemical
[3] = target: MASP-2 CCP2-SP (Homo sapiens (Human), UniProt O00187); assay: MASP-2 co-crystallization, X-ray crystallography and structure analysis (H-bonds, van der Waals contacts); parameters: van der Waals contact distance, MASP-2 HIS 483 atom CD2 / van der Waals contact distance, MASP-2 HIS 483 atom NE2 / van der Waals contact distance, SER 654 C to compound atom / van der Waals contact distance, SER 654 O to compound atom / van der Waals contact distance, TRP 655 C to compound atom / van der Waals contact distance, MASP-2 GLY 528 atom CA / van der Waals contact distance TRP 655 atom CZ3 / van der Waals contact distance TRP 655 atom N / van der Waals contact distance TRP 655 atom CE3 / van der Waals contact distance GLY 656 atom C / van der Waals contact distance GLY 656 atom CA / van der Waals contact distance GLY 656 atom O / van der Waals contact distance, MASP-2 TYR 607 atom CD1 / van der Waals contact distance, MASP-2 PRO 606 atom O / d(C3,CA1) / d(CA1,N1)2 / d(H4,O1) / d(H4,O2) / d(O1,O2) / d(CA1,O2) / d(CA6,O1) / d(CA6,O2) / d(CA1,C5) / d(O2,H3) / d(N2,C2) / d(CA5,N2) / d(N2,C4) / d(N2,C6) / d(N2,CA3) / d(N2,O3) / d(O4,H2): unit not given beside the values; conditions: for van der Waals contact distance, MASP-2 amino acid atom to compound atom: ARG 630;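 on Ligand-pharmacophore element distance, pharmacophore element C2: distance from averaged pharmacophore element to bound ligand; missing value means element absent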;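 on Ligand-pharmacophore element distance, pharmacophore element C3: distance from averaged pharmacophore element to bound ligand; missing value means element absent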;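 on Ligand-pharmacophore element distance, pharmacophore element C4: distance from averaged pharmacophore element to bound ligand; missing value means element absent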;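 on Ligand-pharmacophore element distance, pharmacophore element C5: distance from averaged pharmacophore element to bound ligand; missing value means element absent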
In short: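 Contacts and H-bonds come from partially refined soaked-crystal structures of recombinant human CCP2-SP made in E. coli, solved by molecular replacement against 1Q3X fragments. Where several ligand poses appeared, only one was analysed; listed nonbonded contacts may include possible H-bond pairings.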

[4] = Table A5-1 pharmacophore: distance between elements, S2/S1 region
[5] = Table A5-2 pharmacophore distance, S3/S4 region
[6] = Table A7-1, between pharmacophore elements of the bound compound
[7] = Table A7-2, between pharmacophore elements of the bound compound
[8] = Table A8-6, nearest protein atom in cell to the left

Chain of MASP-2 CCP2-SP (O00187 445-686): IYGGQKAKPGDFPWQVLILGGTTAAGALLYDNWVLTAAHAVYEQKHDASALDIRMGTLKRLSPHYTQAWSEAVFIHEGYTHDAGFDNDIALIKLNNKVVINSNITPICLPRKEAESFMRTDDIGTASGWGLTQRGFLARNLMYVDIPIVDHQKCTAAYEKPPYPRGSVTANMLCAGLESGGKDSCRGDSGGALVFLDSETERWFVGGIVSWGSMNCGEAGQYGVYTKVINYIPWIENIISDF
Chain of MASP-2 CCP2-SP (O00187 364-432 partner): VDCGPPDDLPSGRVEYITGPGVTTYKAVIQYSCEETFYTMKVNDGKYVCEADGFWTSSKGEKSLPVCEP
Chain of MASP-2 (CCP1-CCP2-SP) (O00187 445-686): as the sequence (O00187 445-686) above

C[C@H](NC(=O)[C@H](N)CCc1cc(Cl)cc(Cl)c1)C(=O)NCc1ccc(C(=N)N)cc1 [compound 1118]
Ki [1]: < 500 nM
Ki [2]: < 500 nM
H-bond distance to MASP-2 GLY 656 atom N ([3]; Table A1 (H-Bonds), GLY 656 N): 3.07
H-bond distance to MASP-2 GLY 656 atom O ([3]; Table A1 (H-Bonds), GLY 656 O): 2.77
H-bond distance to MASP-2 SER 628 atom OG ([3]; Table A1 (H-Bonds), SER 628 OG): 3.18
H-bond distance to MASP-2 SER 654 atom O ([3]; Table A1 (H-Bonds), SER 654 O): 2.88
H-bond distance to MASP-2 SER 657 atom O ([3]; Table A1 (H-Bonds), SER 657 O): 2.93
van der Waals contact distance, MASP-2 HIS 483 atom CD2 ([3]; Table A2-1): 3.64
van der Waals contact distance, MASP-2 PHE 529 atom CD1 ([3]; Table A2-3): 3.52
van der Waals contact distance, MASP-2 TYR 607 atom CA ([3]; Table A2-4): 3.79
van der Waals contact distance, MASP-2 amino acid atom to compound atom ([3]; Table A2-9, AA atoms CG, CZ): 3.85
van der Waals contact distance, MASP-2 amino acid atom to compound atom ([3]; Table A2-9 second part, AA atoms N, NE, NH1): 3.67
van der Waals contact distance, VAL 653 CG1 to compound atom ([3]; Table A2-11): 3.86
van der Waals contact distance GLY 656 atom C ([3]; Table A2-13, MASP-2 GLY 656 C): 3.63
van der Waals contact distance TRP 655 atom CZ3 ([3]; Table A2-13, MASP-2 TRP 655 CZ3): 3.69
van der Waals contact distance TRP 655 atom N ([3]; Table A2-13, MASP-2 TRP 655 N): 3.76
van der Waals contact distance SER 657 atom C ([3]; Table A2-14, MASP-2 SER 657 C, columns c12-c13 (inferred)): 3.8
Ligand-pharmacophore element distance, pharmacophore element C2 ([3]; Table A4-1, element C2): 0
Ligand-pharmacophore element distance, pharmacophore element C3 ([3]; Table A4-1, element C3): 0
Ligand-pharmacophore element distance, pharmacophore element C4 ([3]; Table A4-1, element C4): 2.54
Ligand-pharmacophore element distance, pharmacophore element C5 ([3]; Table A4-1, element C5): 0
Ligand-pharmacophore element distance, pharmacophore element C6 ([3]; Table A4-1, element C6): 1.17
Ligand-pharmacophore element distance, pharmacophore element C7 ([3]; Table A4-1, element C7): 0
Ligand-pharmacophore element distance, pharmacophore element CA1 ([3]; Table A4-1, element CA1): 0.43
Ligand-pharmacophore element distance, pharmacophore element CA2 ([3]; Table A4-1, element CA2): 0.69
Ligand-pharmacophore element distance, pharmacophore element CA3 ([3]; Table A4-1, element CA3): 0
Ligand-pharmacophore element distance, pharmacophore element CA4 ([3]; Table A4-1, element CA4): 0
Ligand-pharmacophore element distance, pharmacophore element CA5 ([3]; Table A4-1, element CA5): 0
Ligand-pharmacophore element distance, pharmacophore element CA6 ([3]; Table A4-1, element CA6): 0
d(CA1,N1) [3, 4]: 3.55
d(CA1,O1) [3, 4]: 4.35
d(CA1,O2) [3, 4]: 4.33
d(H4,O1) [3, 4]: 4.85
d(H4,O2) [3, 4]: 4.52
d(O1,O2) [3, 4]: 3.25
d(N2,C4) [3, 5]: 7.40
d(N2,C4)4 [3, 5]: 7.40
d(N2,C6) [3, 5]: 8.27
d(N2,CA2) [3, 5]: 5.84
d(O2,H3) [3, 5]: 5.85
d(O2,N2) [3, 5]: 2.67
a(CA1, O1, O2) ([3]; Table A6-1 pharmacophore angle): 111.55
a(O1, O2, H4) ([3]; Table A6-1 pharmacophore angle): 139.63
A(N1, CA1, O1) a) ([3]; Table A6-1 pharmacophore angle, all compounds with protonatable center N1 except Methyl-amino-pyridine): 162.73
a(O1, O2, H3) ([3]; Table A6-2 pharmacophore angle): 152.79
a(O1, O2, N2) ([3]; Table A6-2 pharmacophore angle): 137.47
a(O2, N2, C4) ([3]; Table A6-2 pharmacophore angle): 162.84
a(O2, N2, C4) 2 ([3]; Table A6-2 pharmacophore angle): 125.21
a(O2, N2, C6) ([3]; Table A6-2 pharmacophore angle): 88.59
a(O2, N2, CA2) ([3]; Table A6-2 pharmacophore angle): 154.60
Pharmacophore torsion angle a(H4, O1, O2, H3) [3, 6]: 38.74
Pharmacophore torsion angle a(H4, O1, O2, N2) [3, 6]: 128.20
Pharmacophore torsion angle a(N1, CA1, O2, H4) [3, 6]: −132.91
Pharmacophore torsion angle a(O1, H4, O2, CA1) [3, 6]: −65.17
Pharmacophore torsion angle a(O1, O2, N2, C6) [3, 7]: 150.07
Pharmacophore torsion angle a(O1, O2, N2, CA2) [3, 7]: 145.00
Pharmacophore protein distance to MET_658 (first MET_658 column) ([3]; Table A8-6, 6th residue column, nearest protein atom in cell to the left): 1.45
Pharmacophore protein distance to MET_658 (second MET_658 column) ([3]; Table A8-6, 9th residue column, nearest protein atom in cell to the left): 3.28
Pharmacophore protein distance to GLY_528 [3, 8]: 3.82
Pharmacophore protein distance to PHE_529 [3, 8]: 3.01
Pharmacophore protein distance to PRO_608 [3, 8]: 4.83
Pharmacophore protein distance to SER_611 [3, 8]: 3.12
Pharmacophore protein distance to TRP_655 ([3]; Table A8-6, pharmacophore elements C6, CA3, O3, H1, nearest protein atom in cell to the left): 3.71
